HELM strings list units from the 5' end as sugar, base in round brackets, then linkage (d deoxyribose, r ribose, m 2'-O-methyl, p phosphodiester). Strings are as the collection lists them; they lack the last nucleoside at the 3' end of the tested compound. [moe] = 2'-O-(2-methoxyethyl) (MOE); [sp] = phosphorothioate linkage; [m5C] = 5-methylcytosine

This data set deals with ATXN2. In words: mouse, dose not given. The following applies: ASO.

As for “RNA1{[moe](A)[sp].[moe](A)p.[moe]([m5C])p.[moe](T)p.[moe](G)p.d(G)[sp].d(A)[sp].d(T)[sp].d(T)[sp].d([m5C])[sp].d(T)[sp].d(G)[sp].d(T)[sp].d(A)[sp].d([m5C])[sp].[moe](T)p.[moe](T)p.[moe](T)[sp].[moe](T)}$$$$ (last 3' nucleoside missing)”, the 3 h FOB score is 4.75 score 0-7.

As to “RNA1{[moe](A)[sp].[moe](G)p.[moe]([m5C])p.[moe](T)p.d(T)[sp].d(A)[sp].d(G)[sp].d(A)[sp].d(G)[sp].d(T)[sp].d(T)[sp].d(T)[sp].d(T)[sp].d(T)[sp].[moe](G)p.[moe]([m5C])p.[moe]([m5C])p.[moe](T)[sp].[moe](T)}$$$$ (last 3' nucleoside missing)”, the 3 h FOB score stood at 4 score 0-7.

“RNA1{[moe](G)[sp].[moe]([m5C])p.[moe](T)p.[moe](T)p.[moe](A)p.d(T)[sp].d(T)[sp].d(A)[sp].d(T)[sp].d(T)[sp].d([m5C])[sp].d(T)[sp].d([m5C])[sp].d(A)[sp].d([m5C])[sp].[moe](A)p.[moe](T)p.[moe](A)[sp].[moe](T)}$$$$ (last 3' nucleoside missing)” returned a 3 h FOB score of 0 score 0-7.

“RNA1{[moe](G)[sp].[moe](T)p.[moe](T)p.[moe](G)p.[moe]([m5C])p.d(A)[sp].d([m5C])[sp].d(A)[sp].d(T)[sp].d(A)[sp].d(G)[sp].d(G)[sp].d(T)[sp].d(T)[sp].d(A)[sp].[moe](G)p.[moe](A)p.[moe](A)[sp].[moe](T)}$$$$ (last 3' nucleoside missing)” registered a 3 h FOB score of 6 score 0-7.

The substance “RNA1{[moe]([m5C])[sp].[moe]([m5C])p.[moe](T)p.[moe](A)p.[moe](T)[sp].d([m5C])[sp].d(A)[sp].d(T)[sp].d([m5C])[sp].d(A)[sp].d(T)[sp].d(T)[sp].d(T)[sp].[moe](T)p.[moe]([m5C])p.[moe]([m5C])[sp].[moe](A)}$$$$ (last 3' nucleoside missing)” came in with a 3 h FOB score of 1 score 0-7.

“RNA1{[moe](A)[sp].[moe](T)p.[moe]([m5C])p.[moe](A)p.[moe](T)[sp].d([m5C])[sp].d(A)[sp].d(T)[sp].d(T)[sp].d(T)[sp].d(T)[sp].d([m5C])[sp].d([m5C])[sp].[moe](A)p.[moe](G)p.[moe](G)[sp].[moe](G)}$$$$ (last 3' nucleoside missing)” displayed a 3 h FOB score of 4.5 score 0-7.

Substance “RNA1{[moe](G)[sp].[moe](G)p.[moe](T)p.[moe](G)p.[moe](G)[sp].d(T)[sp].d(G)[sp].d(T)[sp].d(G)[sp].d([m5C])[sp].d(G)[sp].d([m5C])[sp].d(A)[sp].[moe](T)p.[moe](G)p.[moe](T)[sp].[moe](A)}$$$$ (last 3' nucleoside missing)” returned a 3 h FOB score of 7 score 0-7.

Substance “RNA1{[moe](G)[sp].[moe]([m5C])p.[moe](T)p.[moe](T)p.[moe](A)[sp].d(G)[sp].d(A)[sp].d(G)[sp].d(T)[sp].d(T)[sp].d(T)[sp].d(T)[sp].d(T)[sp].[moe](G)p.[moe]([m5C])p.[moe]([m5C])[sp].[moe](T)}$$$$ (last 3' nucleoside missing)” came in with a 3 h FOB score of 4 score 0-7.

“RNA1{[moe](T)[sp].[moe](A)p.[moe](G)p.[moe](A)p.[moe](G)p.d(T)[sp].d(T)[sp].d(T)[sp].d(T)[sp].d(T)[sp].d(G)[sp].d([m5C])[sp].d([m5C])[sp].d(T)[sp].d(T)[sp].[moe]([m5C])p.[moe]([m5C])p.[moe](A)[sp].[moe](T)}$$$$ (last 3' nucleoside missing)” gave a 3 h FOB score of 2.5 score 0-7.

As for “RNA1{[moe](G)[sp].[moe](T)p.[moe](A)p.[moe](T)p.[moe](T)p.d(T)[sp].d(T)[sp].d(T)[sp].d([m5C])[sp].d(T)[sp].d(T)[sp].d([m5C])[sp].d([m5C])[sp].d(T)[sp].d([m5C])[sp].[moe](A)p.[moe]([m5C])p.[moe](T)[sp].[moe]([m5C])}$$$$ (last 3' nucleoside missing)”, the 3 h FOB score amounted to 3.25 score 0-7.

On to “RNA1{[moe]([m5C])[sp].[moe](A)p.[moe](T)p.[moe](T)p.[moe](T)p.d(T)[sp].d(G)[sp].d(A)[sp].d(A)[sp].d(T)[sp].d(T)[sp].d(A)[sp].d([m5C])[sp].d(A)[sp].d(A)[sp].[moe](T)p.[moe](G)p.[moe]([m5C])[sp].[moe](G)}$$$$ (last 3' nucleoside missing)”, for which the 3 h FOB score was 1 score 0-7.

“RNA1{[moe]([m5C])[sp].[moe](T)p.[moe](A)p.[moe](G)p.[moe](G)p.d(T)[sp].d(G)[sp].d(A)[sp].d(T)[sp].d(G)[sp].d(T)[sp].d(T)[sp].d(T)[sp].d([m5C])[sp].d(A)[sp].[moe](T)p.[moe](T)p.[moe](G)[sp].[moe](G)}$$$$ (last 3' nucleoside missing)” gave a 3 h FOB score of 7 score 0-7.

“RNA1{[moe](G)[sp].[moe](T)p.[moe](G)p.[moe](A)p.d(T)[sp].d(G)[sp].d(T)[sp].d(T)[sp].d(T)[sp].d([m5C])[sp].d(A)[sp].d(T)[sp].d(T)[sp].d(G)[sp].[moe](G)p.[moe](G)p.[moe](T)p.[moe](T)[sp].[moe](T)}$$$$ (last 3' nucleoside missing)” yielded a 3 h FOB score of 6 score 0-7.

“RNA1{[moe](A)[sp].[moe]([m5C])p.[moe](T)p.[moe](T)p.d(T)[sp].d(T)[sp].d([m5C])[sp].d(T)[sp].d([m5C])[sp].d(A)[sp].d(T)[sp].d(G)[sp].d(T)[sp].d(G)[sp].[moe]([m5C])p.[moe](G)p.[moe](G)p.[moe]([m5C])[sp].[moe](A)}$$$$ (last 3' nucleoside missing)” gave a 3 h FOB score of 2.5 score 0-7.

As to “RNA1{[moe](T)[sp].[moe](G)p.[moe](T)p.[moe](A)p.[moe]([m5C])p.d(T)[sp].d(T)[sp].d([m5C])[sp].d(A)[sp].d(A)[sp].d(A)[sp].d(T)[sp].d(T)[sp].d(T)[sp].d(T)[sp].[moe](G)p.[moe](T)p.[moe](T)[sp].[moe](T)}$$$$ (last 3' nucleoside missing)”, the 3 h FOB score came out at 0 score 0-7.

Substance “RNA1{[moe](A)[sp].[moe](T)p.[moe](G)p.[moe](A)p.[moe](T)p.d([m5C])[sp].d(T)[sp].d(T)[sp].d(G)[sp].d(T)[sp].d(G)[sp].d(T)[sp].d(A)[sp].d(T)[sp].d(A)[sp].[moe](T)p.[moe](A)p.[moe](T)[sp].[moe](T)}$$$$ (last 3' nucleoside missing)” displayed a 3 h FOB score of 6 score 0-7.

For the substance “RNA1{[moe]([m5C])[sp].[moe]([m5C])p.[moe](G)p.[moe](G)p.[moe](A)p.d(T)[sp].d(T)[sp].d(G)[sp].d(T)[sp].d(T)[sp].d(T)[sp].d(T)[sp].d([m5C])[sp].d(T)[sp].d(T)[sp].[moe]([m5C])p.[moe](A)p.[moe](T)[sp].[moe](T)}$$$$ (last 3' nucleoside missing)”, the 3 h FOB score was 1 score 0-7.

Regarding “RNA1{[moe](T)[sp].[moe]([m5C])p.[moe](G)p.[moe](T)p.[moe](A)p.d(T)[sp].d(G)[sp].d(T)[sp].d(T)[sp].d(T)[sp].d(G)[sp].d(T)[sp].d([m5C])[sp].d(T)[sp].d(G)[sp].[moe](T)p.[moe]([m5C])p.[moe](T)[sp].[moe](T)}$$$$ (last 3' nucleoside missing)”, the 3 h FOB score stood at 6.25 score 0-7.

“RNA1{[moe](G)[sp].[moe](T)p.[moe](T)p.[moe]([m5C])p.[moe](A)p.d(T)[sp].d(G)[sp].d(A)[sp].d([m5C])[sp].d(T)[sp].d(T)[sp].d(T)[sp].d([m5C])[sp].d(A)[sp].d(A)[sp].[moe](G)p.[moe](G)p.[moe](G)[sp].[moe](T)}$$$$ (last 3' nucleoside missing)” registered a 3 h FOB score of 2 score 0-7.

Values taken from the OligoGym collection.
